Test results taken from patent US11464763B2, “Parasiticidal compositions comprising an isoxazoline active agent, methods and uses thereof” (BOEHRINGER INGELHEIM ANIMAL HEALTH USA INC., priority 2011, dated 2022).

Key:
Ctenocephalides felis = assay: Spot-on efficacy at 1 mg/kg against Ctenocephalides felis fleas in cats (Example 7); assay type: in vivo; conditions: for efficacy against fleas: Group 2 (DMI)
Procedure: The efficacy of several spot-on formulations comprising Cmpd. A dosed at 1 mg/kg body weight in different carrier vehicles against fleas in cats was studied. Five cats each were allocated to 6 Treatment Groups. The […] per study group were subjected to weekly infestations followed by 24 h flea counts for 5 to 8 weeks, according to the following Group allocations: Group 1—untreated control; Group 2-1.0% (w/v) Cmpd. A in DMI; Group 3-1.0% (w/v) Cmpd. A in diethyl sebacate (DES); Group 4-1.0% (w/v) Cmpd. A in 9% lauryl lactate+DES; Group 5—1% (w/v) Cmpd. A in 8% ethyl oleate+DES; and Group 6-1% (w/v) Cmpd. A in a vehicle comprising Transcutol®+10% (w/v) ethanol+5% polyvinylpyrrolidone+5% TWEEN 80. Cats were infested with approximately 100 C. felis on Day −1 and treated on Day 0 with the corresponding spot-on formulation by application of the formulation directly on the skin in the midline of the neck, between the base of the skull and the shoulder blades in a single spot using a 1 mL syringe. Twelve hours after treatment, fleas were removed and counted. The cats were immediately re-infested with approximately 100 fleas. Fleas were removed and counted on Day 1 at approximately 24 hours post-treatment. Cats were also infested with fleas on Days 7, 21, […], 35, 42 and 49. Fleas were removed and counted approximately 24 hours after infestation on Days 8, 22, 29, 36, 43 and 50.

[1] = test system: Rhipicephalus (Boophilus) microplus; assay: Pour-on tick count efficacy against Rhipicephalus (Boophilus) microplus in cattle (Example 15); assay type: in vivo
Procedure: The efficacy of two pour-on formulations of the invention comprising Compound A at doses of 2.5 mg/kg and 10 mg/kg were tested against infestations of Rhipicephalus (Boophilus) microplus ticks compared with an untreated control. Five healthy head of cattle of 6 to 15 months of age weighing between 100 to 200 kg were used in each study group. Cattle in Group 1 were untreated (control). Cattle in Group 2 were treated on Day 0 with a pour-on formulation comprising Compound A at a concentration of 2.5% (w/v) in DES at a dose of 2.5 mg/kg; and cattle in Group 3 were treated on Day 0 with a pour-on formulation comprising Compound A at a concentration of 10% (w/v) in DES at a dose of 10 mg/kg. Several weeks before treatment, cattle are infested three times a week with approximately 2500 Rhipicephalus (Boophilus) microplus larvae to establish ongoing infestations. Cattle in Groups 2 and 3 were treated with the respective compositions on Day 0 by measuring the required amount of the solution into a marked disposable syringe and applying the material evenly along the mid-line of the back of each animal from the withers to the tail head.
Each animal was challenged by infestation with approximately 5000 R. microplus larvae on Days 7 and 21 and every 14 days thereafter. Ticks dropping from each animal in the previous 24 hours were collected daily and counted from Day 1 until the end of the study. Since the life cycle of the ticks from the point of infestation with larvae until engorged ticks fall off is approximately 21 days (average), the assessment of efficacy for the challenges on Days 7 and 21 and every 14 days thereafter, was done for a range of 7 or 8 days starting approximately 21 days after the challenge. The assessment of efficacy at the beginning of the study was done from day 1 until Day 21.
In addition, the ticks collected were weighed as a group to measure the impact of the treatment on the weight gain of the ticks compared to the control to assess the vitality and reproductive capability of the treated ticks. […] Tables 16A and 16B show the % efficacy of the two pour-on formulations based on the weight of the ticks collected. […] As evidenced from the tables and the figures, the pour-on formulations of the invention at both 2.5 mg/kg and 10 mg/kg provide excellent efficacy against Rhipicephalus (Boophilus) microplus ticks for an extended period of time. […] Furthermore, as shown in Tables 16A and 16B, the two pour-on compositions were extremely effective against ticks based on the weight of the ticks collected. […] The extremely long lasting efficacy above 90% for pour-on composition against Rhipicephalus (Boophilus) microplus ticks is remarkable compared with pour-on formulations known in the art.

O=C(CNC(=O)c1ccc(C2=NOC(c3cc(Cl)cc(C(F)(F)F)c3)(C(F)(F)F)C2)c2ccccc12)NCC(F)(F)F (centres unmarked) [Compound A, 4-[5-[3-chloro-5-(trifluoromethyl)phenyl]-4,5-dihydro-5-(trifluoromethyl)-3-isoxazolyl]-N-[2-oxo-2-[(2,2,2-trifluoroethyl)amino]ethyl]-1-naphthalanecarboxamide]
efficacy against fleas (Ctenocephalides felis; until Day 50): above 85%
efficacy against fleas (Ctenocephalides felis; until at least Day 43): above 90%
% Reduction (Ctenocephalides felis; Group 2: 1.0% in DMI, 1 mg/kg, Day 0 (12 hr)): 22.3%
% Reduction (Ctenocephalides felis; Group 2: 1.0% in DMI, 1 mg/kg, Day 1): 28.0%
% Reduction (Ctenocephalides felis; Group 2: 1.0% in DMI, 1 mg/kg, Day 8): 99.3%
% Reduction (Ctenocephalides felis; Group 2: 1.0% in DMI, 1 mg/kg, Day 22): 99.5%
% Reduction (Ctenocephalides felis; Group 2: 1.0% in DMI, 1 mg/kg, Day 29): 98.5%
% Reduction (Ctenocephalides felis; Group 2: 1.0% in DMI, 1 mg/kg, Day 36): 94.2%
% Reduction (Ctenocephalides felis; Group 2: 1.0% in DMI, 1 mg/kg, Day 43): 94.3%
% Reduction (Ctenocephalides felis; Group 2: 1.0% in DMI, 1 mg/kg, Day 50): 87.7%
% Reduction (Ctenocephalides felis; Group 3: 1.0% in DES, 1 mg/kg, Day 0 (12 hr)): 9.6%
% Reduction (Ctenocephalides felis; Group 3: 1.0% in DES, 1 mg/kg, Day 1): 72.7%
% Reduction (Ctenocephalides felis; Group 3: 1.0% in DES, 1 mg/kg, Day 8): 99.7%
% Reduction (Ctenocephalides felis; Group 3: 1.0% in DES, 1 mg/kg, Day 22): 97.4%
% Reduction (Ctenocephalides felis; Group 3: 1.0% in DES, 1 mg/kg, Day 29): 95.1%
% Reduction (Ctenocephalides felis; Group 3: 1.0% in DES, 1 mg/kg, Day 36): 79.3%
% Reduction (Ctenocephalides felis; Group 3: 1.0% in DES, 1 mg/kg, Day 43): 72.2%
% Reduction (Ctenocephalides felis; Group 3: 1.0% in DES, 1 mg/kg, Day 50): 44.8%
% Reduction (Ctenocephalides felis; Group 4: 1.0% in 9% lauryl lactate+DES, 1 mg/kg, Day 0 (12 hr)): 9.2%
% Reduction (Ctenocephalides felis; Group 4: 1.0% in 9% lauryl lactate+DES, 1 mg/kg, Day 1): 36.5%
% Reduction (Ctenocephalides felis; Group 4: 1.0% in 9% lauryl lactate+DES, 1 mg/kg, Day 8): 99.7%
% Reduction (Ctenocephalides felis; Group 4: 1.0% in 9% lauryl lactate+DES, 1 mg/kg, Day 22): 98.5%
% Reduction (Ctenocephalides felis; Group 4: 1.0% in 9% lauryl lactate+DES, 1 mg/kg, Day 29): 98.1%
% Reduction (Ctenocephalides felis; Group 4: 1.0% in 9% lauryl lactate+DES, 1 mg/kg, Day 36): 89.3%
% Reduction (Ctenocephalides felis; Group 4: 1.0% in 9% lauryl lactate+DES, 1 mg/kg, Day 43): 92.7%
% Reduction (Ctenocephalides felis; Group 4: 1.0% in 9% lauryl lactate+DES, 1 mg/kg, Day 50): 79.2%
% Reduction (Ctenocephalides felis; Group 5: 1% in 8% ethyl oleate+DES, 1 mg/kg, Day 0 (12 hr)): 65.9%
% Reduction (Ctenocephalides felis; Group 5: 1% in 8% ethyl oleate+DES, 1 mg/kg, Day 1): 77.2%
% Reduction (Ctenocephalides felis; Group 5: 1% in 8% ethyl oleate+DES, 1 mg/kg, Day 8): 98.4%
% Reduction (Ctenocephalides felis; Group 5: 1% in 8% ethyl oleate+DES, 1 mg/kg, Day 22): 96.9%
% Reduction (Ctenocephalides felis; Group 5: 1% in 8% ethyl oleate+DES, 1 mg/kg, Day 29): 95.0%
% Reduction (Ctenocephalides felis; Group 5: 1% in 8% ethyl oleate+DES, 1 mg/kg, Day 36): 85.5%
% Reduction (Ctenocephalides felis; Group 5: 1% in 8% ethyl oleate+DES, 1 mg/kg, Day 43): 79.7%
% Reduction (Ctenocephalides felis; Group 5: 1% in 8% ethyl oleate+DES, 1 mg/kg, Day 50): 64.0%
% Reduction (Ctenocephalides felis; Group 6: 1% in Transcutol+10% ethanol+5% polyvinylpyrrolidone+5% TWEEN 80, 1 mg/kg, Day 0 (12 hr)): 17.7%
% Reduction (Ctenocephalides felis; Group 6: 1% in Transcutol+10% ethanol+5% polyvinylpyrrolidone+5% TWEEN 80, 1 mg/kg, Day 1): 75.6%
% Reduction (Ctenocephalides felis; Group 6: 1% in Transcutol+10% ethanol+5% polyvinylpyrrolidone+5% TWEEN 80, 1 mg/kg, Day 8): 100.0%
% Reduction (Ctenocephalides felis; Group 6: 1% in Transcutol+10% ethanol+5% polyvinylpyrrolidone+5% TWEEN 80, 1 mg/kg, Day 22): 99.3%
% Reduction (Ctenocephalides felis; Group 6: 1% in Transcutol+10% ethanol+5% polyvinylpyrrolidone+5% TWEEN 80, 1 mg/kg, Day 29): 97.5%
% Reduction (Ctenocephalides felis; Group 6: 1% in Transcutol+10% ethanol+5% polyvinylpyrrolidone+5% TWEEN 80, 1 mg/kg, Day 36): 93.8%
% Reduction (Ctenocephalides felis; Group 6: 1% in Transcutol+10% ethanol+5% polyvinylpyrrolidone+5% TWEEN 80, 1 mg/kg, Day 43): 93.9%
% Reduction (Ctenocephalides felis; Group 6: 1% in Transcutol+10% ethanol+5% polyvinylpyrrolidone+5% TWEEN 80, 1 mg/kg, Day 50): 79.6%
Average % Efficacy (Tick Count) ([1]; Group 2: pour-on 2.5% (w/v) in DES, 2.5 mg/kg, Day 1-21): 58.8%
Average % Efficacy (Tick Count) ([1]; Group 2: pour-on 2.5% (w/v) in DES, 2.5 mg/kg, Day 28-34, Challenge Day 7): 75.6%
Average % Efficacy (Tick Count) ([1]; Group 2: pour-on 2.5% (w/v) in DES, 2.5 mg/kg, Day 41-48, Challenge Day 21): 77.0%
Average % Efficacy (Tick Count) ([1]; Group 2: pour-on 2.5% (w/v) in DES, 2.5 mg/kg, Day 55-62, Challenge Day 35): 91.2%
Average % Efficacy (Tick Count) ([1]; Group 2: pour-on 2.5% (w/v) in DES, 2.5 mg/kg, Day 69-76, Challenge Day 49): 88.3%
Average % Efficacy (Tick Count) ([1]; Group 2: pour-on 2.5% (w/v) in DES, 2.5 mg/kg, Day 83-90, Challenge Day 63): 90.7%
Average % Efficacy (Tick Count) ([1]; Group 2: pour-on 2.5% (w/v) in DES, 2.5 mg/kg, Day 97-104, Challenge Day 77): 79.8%
Average % Efficacy (Tick Count) ([1]; Group 2: pour-on 2.5% (w/v) in DES, 2.5 mg/kg, Day 111-118, Challenge Day 91): 79.0%
Average % Efficacy (Tick Count) ([1]; Group 2: pour-on 2.5% (w/v) in DES, 2.5 mg/kg, Day 132-139, Challenge Day 112): 86.2%
Average % Efficacy (Tick Count) ([1]; Group 2: pour-on 2.5% (w/v) in DES, 2.5 mg/kg, Day 146-153, Challenge Day 126): 30.3%
Average % Efficacy (Tick Count) ([1]; Group 2: pour-on 2.5% (w/v) in DES, 2.5 mg/kg, Day 160-167, Challenge Day 140): 74.0%
Average % Efficacy (Tick Count) ([1]; Group 3: pour-on 10% (w/v) in DES, 10 mg/kg, Day 1-21): 78.1%
Average % Efficacy (Tick Count) ([1]; Group 3: pour-on 10% (w/v) in DES, 10 mg/kg, Day 28-34, Challenge Day 7): 92.0%
Average % Efficacy (Tick Count) ([1]; Group 3: pour-on 10% (w/v) in DES, 10 mg/kg, Day 41-48, Challenge Day 21): 98.0%
Average % Efficacy (Tick Count) ([1]; Group 3: pour-on 10% (w/v) in DES, 10 mg/kg, Day 55-62, Challenge Day 35): 97.8%
Average % Efficacy (Tick Count) ([1]; Group 3: pour-on 10% (w/v) in DES, 10 mg/kg, Day 69-76, Challenge Day 49): 99.3%
Average % Efficacy (Tick Count) ([1]; Group 3: pour-on 10% (w/v) in DES, 10 mg/kg, Day 83-90, Challenge Day 63): 98.9%
Average % Efficacy (Tick Count) ([1]; Group 3: pour-on 10% (w/v) in DES, 10 mg/kg, Day 97-104, Challenge Day 77): 92.4%
Average % Efficacy (Tick Count) ([1]; Group 3: pour-on 10% (w/v) in DES, 10 mg/kg, Day 111-118, Challenge Day 91): 96.6%
Average % Efficacy (Tick Count) ([1]; Group 3: pour-on 10% (w/v) in DES, 10 mg/kg, Day 132-139, Challenge Day 112): 92.4%
Average % Efficacy (Tick Count) ([1]; Group 3: pour-on 10% (w/v) in DES, 10 mg/kg, Day 146-153, Challenge Day 126): 72.4%
Average % Efficacy (Tick Count) ([1]; Group 3: pour-on 10% (w/v) in DES, 10 mg/kg, Day 160-167, Challenge Day 140): 85.8%
tick count efficacy ([1]; pour-on 2.5 mg/kg and 10 mg/kg, for at least day 139): above 90%
